# Data as given in patent publication US7139665B2, “Computational method for designing enzymes for incorporation of non natural amino acids into proteins” (California Institute of Technology, priority 2002, dated 2006).
# Entries after “also recorded” stand apart in the source; their conditions may differ.
# Experiments:
# ePheRS* [1] = molecular target: T1, ePheRS* (Escherichia coli, UniProt P08312, A294G); conditions: over-expression of ePheRS*; earlier work; cited from earlier work
# T1 construct: expressed in transfected cells; host or cells: E. coli AF-IQ[pQE-FS*]
# T1 sequence (P08312 whole entry A294G): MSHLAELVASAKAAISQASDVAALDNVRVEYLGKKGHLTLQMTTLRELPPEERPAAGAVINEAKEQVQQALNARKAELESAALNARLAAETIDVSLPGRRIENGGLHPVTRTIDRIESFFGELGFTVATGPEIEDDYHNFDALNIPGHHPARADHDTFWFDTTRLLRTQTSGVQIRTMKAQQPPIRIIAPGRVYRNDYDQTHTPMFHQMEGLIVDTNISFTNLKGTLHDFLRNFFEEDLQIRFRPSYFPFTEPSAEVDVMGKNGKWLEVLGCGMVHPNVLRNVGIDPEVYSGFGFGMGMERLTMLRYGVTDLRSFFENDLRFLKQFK
# T1 sequence (P07395 whole entry, further chain): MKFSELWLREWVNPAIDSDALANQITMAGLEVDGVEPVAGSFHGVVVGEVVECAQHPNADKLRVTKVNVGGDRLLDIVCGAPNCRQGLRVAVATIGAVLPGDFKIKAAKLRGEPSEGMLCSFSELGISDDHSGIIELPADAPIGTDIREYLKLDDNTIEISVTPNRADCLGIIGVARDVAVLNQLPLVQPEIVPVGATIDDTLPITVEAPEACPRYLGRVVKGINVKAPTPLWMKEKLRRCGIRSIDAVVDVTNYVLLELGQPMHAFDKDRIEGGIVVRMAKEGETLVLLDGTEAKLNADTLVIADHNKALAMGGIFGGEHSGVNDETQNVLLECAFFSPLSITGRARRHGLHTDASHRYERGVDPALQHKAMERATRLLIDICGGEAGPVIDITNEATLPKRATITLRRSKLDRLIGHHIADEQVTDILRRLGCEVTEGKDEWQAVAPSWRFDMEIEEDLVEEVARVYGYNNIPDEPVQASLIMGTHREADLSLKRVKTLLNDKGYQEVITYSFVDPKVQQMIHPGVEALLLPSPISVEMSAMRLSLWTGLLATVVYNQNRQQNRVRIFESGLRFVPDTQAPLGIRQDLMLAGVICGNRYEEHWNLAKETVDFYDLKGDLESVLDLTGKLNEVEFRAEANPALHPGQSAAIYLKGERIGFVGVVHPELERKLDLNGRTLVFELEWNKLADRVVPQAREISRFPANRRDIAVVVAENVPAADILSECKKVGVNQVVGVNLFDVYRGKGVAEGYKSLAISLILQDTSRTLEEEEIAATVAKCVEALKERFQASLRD
# ePheRS* [2] = molecular target: T1, ePheRS*; experiment: In vivo translational activity: mDHFR expression in E. coli AF-IQ[pQE-FS*] over-expressing ePheRS* (Ala294Gly); type: cell-based; conditions: ePheRS* over-expressed, Phe-depleted media supplemented with 2 (250 mg/L), versus background (-phe)
# Protocol: (§1) AF-IQ, a phenylalanine auxotrophic E. coli strain carrying the repressor plasmid pLysS-IQ,^4 was transformed with pQE15, pQE-FS*, or pQE-FS** to generate expression systems AF-IQ[pQE15], AF-IQ[pQE-FS*], and AF-IQ[pQE-FS**], respectively. The capacity of 2 to support protein synthesis in each expression system was determined by induction of mDHFR expression in phenylalanine-free minimal media supplemented with 2.
# A phenylalanine auxotrophic derivative of E. coli strain BL21(DE3), designed AF (HsdS gal (χcIts857 ind I Dam5 lacUV5-T7 gene 1) pheA) and constructed in our laboratory, was used as the expression host. The AF strain was transformed with repressor plasmid pLysS-IQ and with pQE15, pQE-FS* or pQE-FS** to generate expression strains AF-IQ[pQE15], AF-IQ[pQE-FS*] or AF-IQ[pQE-FS**], respectively.
# Small scale (10 ml) cultures were used to investigate the in vivo translational activity of 2 (p-AcetylPhe). M9 minimal medium (50 ml) supplemented with 0.2% glucose, 1 mg/L thiamine, 1 mM MgSO4, 1 mM CaCl2, 19 amino acids (at 20 mg/L), antibiotics (ampicillin 200 mg/L, chloramphenicol 35 mg/L) and phenylalanine (at 20 mg/L) was inoculated with 1 ml of an overnight culture of the expression strain. […] Cells were cultured for 4 hours post-induction and protein expression was monitored by SDS polyacrylamide gel electrophoresis (PAGE, 12%), using a normalized OD600 of 0.2 per sample.
# ePheRS** = molecular target: T2, ePheRS** (Escherichia coli, UniProt P08312, A294G/T251G); type: cell-based
# T2 construct: expressed in transfected cells; host or cells: E. coli AF-IQ[pQE-FS**]
# T2 sequence (P08312 whole entry T251G/A294G): as the sequence (P08312 whole entry A294G) above, with T251G counted along it
# T2 sequence (P07395 whole entry, further chain): as the sequence (P07395 whole entry, further chain) above
# Protocol: The capacity of 2 to support protein synthesis in each expression system was determined by induction of mDHFR expression in phenylalanine-free minimal media supplemented with 2.
# (§2) The AF strain was transformed with repressor plasmid pLysS-IQ and with pQE15, pQE-FS* or pQE-FS** to generate expression strains AF-IQ[pQE15], AF-IQ[pQE-FS*] or AF-IQ[pQE-FS**], respectively.
# Small scale (10 ml) cultures were used to investigate the in vivo translational activity of 2 (p-AcetylPhe). M9 minimal medium (50 ml) supplemented with 0.2% glucose, 1 mg/L thiamine, 1 mM MgSO4, 1 mM CaCl2, 19 amino acids (at 20 mg/L), antibiotics (ampicillin 200 mg/L, chloramphenicol 35 mg/L) and phenylalanine (at 20 mg/L) was inoculated with 1 ml of an overnight culture of the expression strain. When the optical density at 600 nm reached 0.8–1.0, a medium shift was performed. Cells were sedimented by centrifugation for 15 min at 3,100 g at 4° C., the supernatant was removed and the cell pellets were washed twice with 0.9% NaCl. Cells were resuspended in supplemented M9 medium containing either: (a) 250 mg/L of p-AcetylPhe 2, (b) 20 mg/L phe (1) (positive control), or (c) no phe or analog (negative control). Protein expression was induced 10 min after the medium shift by addition of isopropyl-β-D-thiogalactoside (IPTG) to a final concentration of 1 mM. Cells were cultured for 4 hours post-induction and protein expression was monitored by SDS polyacrylamide gel electrophoresis (PAGE, 12%), using a normalized OD600 of 0.2 per sample.
# ePheRS = molecular target: T3, ePheRS (Escherichia coli, UniProt P08312); experiment: In vivo translational activity: mDHFR expression in Phe-auxotrophic E. coli AF-IQ[pQE15] (no mutant synthetase); type: cell-based; conditions: phenylalanine-free minimal media supplemented with 2 (250 mg/L), 4 hr post-induction, versus background (-phe)
# T3 construct: endogenous in cells; host or cells: E. coli AF-IQ[pQE15]; (Phe-auxotrophic BL21(DE3) derivative)
# T3 sequence (P07395 whole entry): as the sequence (P07395 whole entry, further chain) above
# T3 sequence (P08312 whole entry): as the sequence (P08312 whole entry A294G) above, with G294A counted along it
# Protocol: as §1, §2
# Small scale (10 ml) cultures were used to investigate the in vivo translational activity of 2 (p-AcetylPhe). M9 minimal medium (50 ml) supplemented with 0.2% glucose, 1 mg/L thiamine, 1 mM MgSO4, 1 mM CaCl2, 19 amino acids (at 20 mg/L), antibiotics (ampicillin 200 mg/L, chloramphenicol 35 mg/L) and phenylalanine (at 20 mg/L) was inoculated with 1 ml of an overnight culture of the expression strain. When the optical density at 600 nm reached 0.8–1.0, a medium shift was performed. […] Cells were cultured for 4 hours post-induction and protein expression was monitored by SDS polyacrylamide gel electrophoresis (PAGE, 12%), using a normalized OD600 of 0.2 per sample.
smiles,measurement,setting,value
[N-]=[N+]=Nc1ccc(C[C@H](N)C(=O)O)cc1 [p-azidophenylalanine],incorporation into recombinant proteins in E. coli hosts,ePheRS* [1],efficient incorporation
N#Cc1ccc(C[C@H](N)C(=O)O)cc1 [p-cyanophenylalanine],incorporation into recombinant proteins in E. coli hosts,ePheRS* [1],efficient incorporation
N[C@@H](Cc1ccc(Br)cc1)C(=O)O [p-bromophenylalanine],incorporation into recombinant proteins in E. coli hosts,ePheRS* [1],efficient incorporation
"CC(=O)c1ccc(C[C@H](N)C(=O)O)cc1 [compound 2, p-acetylphenylalanine]","protein (mDHFR) expression, SDS-PAGE of whole cell lysates",ePheRS* [2],did not produce substantial yields of protein; also recorded: neither AF-IQ[pQE15] nor AF-IQ[pQE-FS*] exhibits protein expression above background
same,"protein (mDHFR) expression, SDS-PAGE of whole cell lysates","ePheRS**; AF-IQ[pQE-FS**], phenylalanine-free minimal media supplemented with 2 (250 mg/L)",high levels of mDHFR expression
same,replacement of 1 by 2 in mDHFR,"ePheRS**; from MALDI-TOF mass increase of mDHFR-2, mDHFR contains 9 Phe residues",approximately 80%
same,misincorporation of canonical amino acids,ePheRS**; media supplemented with 2,no detectable misincorporation
same,"protein (mDHFR) expression, SDS-PAGE of whole cell lysates",ePheRS,neither AF-IQ[pQE15] nor AF-IQ[pQE-FS*] exhibits protein expression above background
N[C@@H](Cc1ccc(I)cc1)C(=O)O [p-iodophenylalanine],incorporation into recombinant proteins in E. coli hosts,ePheRS* [1],efficient incorporation
N[C@@H](Cc1ccc(O)cc1)C(=O)O [tyrosine],misincorporation into protein,ePheRS**; under any conditions,not observed misincorporation
C#Cc1ccc(C[C@H](N)C(=O)O)cc1 [p-ethynylphenylalanine],incorporation into recombinant proteins in E. coli hosts,ePheRS* [1],efficient incorporation
N[C@@H](Cc1c[nH]c2ccccc12)C(=O)O [tryptophan],misincorporation into protein by ePheRS**,ePheRS**; phe starvation conditions in the absence of 2,misincorporation
